The text below walks through data of paper PMC8881610 (Nature Communications, 2022).

SMILES strings stand for the structures. Changes are numbered by the printed parent chain.

Common to all, as to assay: cAMP accumulation assay (LANCE Ultra cAMP kit), GIPR WT, mutant or modified constructs
What all share (assay type): cell-based
Common to all, as to parameters: acylated tirzepatide to the full-length or modified; Flag; expressed in transfected cells; host or cells: HEK293T

For test [1], the target named is T1, GIPR (Homo sapiens, UniProt P48546, F127A).
T1 sequence (P48546 22-466 F127A): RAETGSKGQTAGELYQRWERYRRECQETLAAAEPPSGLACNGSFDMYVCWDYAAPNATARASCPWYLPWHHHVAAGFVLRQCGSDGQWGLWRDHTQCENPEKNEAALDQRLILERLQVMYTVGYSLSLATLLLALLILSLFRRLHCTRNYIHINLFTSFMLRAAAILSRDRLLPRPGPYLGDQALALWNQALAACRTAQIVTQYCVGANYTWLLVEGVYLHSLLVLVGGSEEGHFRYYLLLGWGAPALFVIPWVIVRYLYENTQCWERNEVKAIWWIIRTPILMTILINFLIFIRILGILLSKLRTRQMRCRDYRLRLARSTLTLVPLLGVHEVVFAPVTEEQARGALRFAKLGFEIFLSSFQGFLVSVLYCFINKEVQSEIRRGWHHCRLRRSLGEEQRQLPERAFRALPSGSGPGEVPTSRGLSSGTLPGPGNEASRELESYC
To be noted: GIPR F127A, HEK293T. Summed up: (§1)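 HEK293T cells transiently transfected with human GIPR WT or mutant constructs (pcDNA3.1), used after 24 h. The cells were stimulated with peptide agonists for 40 min at RT in HBSS with 5 mM HEPES, 0.1% BSA or casein, and 0.5 mM IBMX. cAMP was read by LANCE Ultra TR-FRET (Eu-cAMP tracer/ULight anti-cAMP, 1 h RT, 620/650 nm).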

In test [2] the target is T2, GIPR (Homo sapiens, UniProt P48546, Q30A).
T2 sequence (P48546 22-466 Q30A): T1 sequence (P48546 22-466 F127A) with Q9A, A106F
To be noted: GIPR Q30A, HEK293T. A digest of the protocol: as §1

For test [3], the target named is T3, GIPR (Homo sapiens, UniProt P48546, R370A).
T3 sequence (P48546 22-466 R370A): T1 sequence (P48546 22-466 F127A) with A106F, R349A
To be noted: HEK-293T, GIPR R370A; HEK293T. A digest of the protocol:
as §1

[4] abbreviates: read-out: cAMP pEC50 (converted).

`CCCCCCCCCCCCCCCC(=O)N[C@@H](CCC(=O)NCCCC[C@H](NC(=O)[C@H](CC(=O)O)NC(=O)[C@H](CO)NC(=O)[C@@H](NC(=O)[C@H](Cc1ccccc1)NC(=O)[C@@H](NC(=O)CNC(=O)[C@H](CCC(N)=O)NC(=O)C(C)(C)NC(=O)[C@@H](N)Cc1c[nH]cn1)[C@@H](C)O)[C@@H](C)O)C(=O)N[C@@H](CO)C(=O)N[C@@H](CCCCN)C(=O)N[C@@H](Cc1ccc(O)cc1)C(=O)N[C@@H](CC(C)C)C(=O)N[C@@H](CC(=O)O)C(=O)N[C@@H](CCC(=O)O)C(=O)N[C@@H](CCCNC(=N)N)C(=O)N[C@@H](C)C(=O)N[C@@H](C)C(=O)N[C@@H](CCC(N)=O)C(=O)N[C@@H](CC(=O)O)C(=O)N[C@@H](Cc1ccccc1)C(=O)N[C@H](C(=O)N[C@@H](CCC(N)=O)C(=O)N[C@@H](Cc1c[nH]c2ccccc12)C(=O)N[C@@H](CC(C)C)C(=O)N[C@@H](CC(C)C)C(=O)N[C@@H](CC(=O)O)C(=O)NCC(=O)NCC(=O)N1CCC[C@H]1C(=O)N[C@@H](CO)C(=O)N[C@@H](CO)C(=O)NCC(=O)N[C@@H](C)C(=O)N1CCC[C@H]1C(=O)N1CCC[C@H]1C(=O)N1CCC[C@H]1C(=O)N[C@@H](CO)C(N)=O)C(C)C)C(=O)O` [Peptide 20]: the EC50 is 0.00457 nM at GIPR [1] (setting [4]) and 0.0427 nM at GIPR [2] (setting [4]). In addition, the Emax (in general, the size of the effect at its maximum, as opposed to the concentration needed) at GIPR [1] (HEK-293T) worked out at 100 ± 1.64%; at GIPR [2] (HEK-293T), 100 ± 1.79%; at GIPR [3], 71.5 ± 2.85%.
